Results taken from patent US11925644B2, “Crystalline salts of 5-methyl-(6S)-tetrahydrofolic acid and l-leucine ethyl ester” (MERCK PATENT GMBH, priority 2018, dated 2024).

Columns and labels:
[1] = cited from earlier work; for aqueous solubility: room temperature
Water content (TG-FTIR) = type: physicochemical
Description: Thermogravimetric measurements were carried out with a Netzsch Thermo-Microbalance TG 209 coupled to a Bruker FTIR Spectrometer Vector 22 (sample pans with a pinhole, N2 atmosphere, heating rate 10 K/min).
About 420 mg of the solid material obtained in Example 2 was weighed into a filter centrifuge device and 2.0 mL of water is added followed by centrifugation under ambient conditions. This wash step is repeated twice more using 0.5 mL of water. The wet filter cake is then transferred to a fritted glass filter and air dried by drawing ambient air (about 22° C./about 21% r.h.) through the glass filter for about 10 minutes.
(§1) DVS measurements were performed as follows: The sample was placed on an aluminum holder on top of a microbalance and allowed to equilibrate at 50% RH before starting the pre-defined humidity program: • (1) two hours kept at 50% constant relative humidity (RH) then • (2) reduced to 0% RH at a rate of 5% per hour • (3) maintained RH at 0% for five hours • (4) raised RH to 75% at a rate of 5% per hour • (5) maintained RH at 75% for five hours • (6) reduced to 0% RH at a rate of 5% per hour • (7) maintained RH at 0% for five hours • (8) raised RH to 75% at a rate of 5% per hour • (9) reduced to 50% RH at a rate of 5% per hour • (10) maintained RH at 50% for about one hour

[2] = purified/de-ionized water, room temperature, agitated one minute, gravimetric
Description: (§2) 2.00 mL of purified/de-ionized water (for instance water for chromatography) was added to the solid using an adjustable volumetric pipette. The mixture was vigorously agitated at room temperature for one minute. […] The solution was filtered by centrifugal filtration and 1.50 mL of the aqueous solution was transferred into a tared glass vial (about 10 mL volume). The water was evaporated in an air dryer at 40° C. for about 15 hours, then at 50° C. for about eight hours, subsequently drying was completed at 50° C. under vacuum (10 to 20 mbar) for about 13 hours. The solubility was determined by gravimetric evaluation of the solid residue.
as §2, with “The suspension” for “The solution”

[3] = Hygroscopicity by dynamic water vapor sorption analysis (DVS); type: physicochemical; conditions: 0 to 75% r.h.
Description: DVS measurements are typically performed with an SPS11-100n “Sorptions Prüfsystem” from ProUmid (formerly “Projekt Messtechnik”), August-Nagel-Str. 23, 89079 Ulm (Germany).
as §1
The results are illustrated in FIG. 2.

Compound: CN1c2c([nH]c(N)nc2=O)NC[C@@H]1CNc1ccc(C(=O)N[C@@H](CCC(=O)[O-])C(=O)[O-])cc1.[Ca+2] [Form I, calcium salt of 5-methyl-(6S)-tetrahydrofolic acid]
- aqueous solubility [1]: about 10 mg/ml

Compound: CCOC(=O)[C@@H](N)CC(C)C.CN1c2c([nH]c(N)nc2=O)NC[C@@H]1CNc1ccc(C(=O)N[C@@H](CCC(=O)O)C(=O)O)cc1 [5-methyl-(6S)-tetrahydrofolic acid L-leucine ethyl ester 1:1 salt]
- water content (Water content (TG-FTIR); TG-FTIR analysis): about 0.7%

Compound: CN1c2c(nc(N)[nH]c2=O)NC[C@@H]1CNc1ccc(C(=O)N[C@@H](CCC(=O)O)C(=O)O)cc1 [5-methyl-(6S)-tetrahydrofolic acid]
- solubility in water ([1]; water): poorly soluble in water

Compound: CN1c2c([nH]c(N)nc2=O)NC[C@@H]1CNc1ccc(C(=O)N[C@@H](CCC(=O)[O-])C(=O)[O-])cc1.[Ca+2] [calcium salt (Form III), calcium salt of 5-methyl-(6S)-tetrahydrofolic acid]
- aqueous solubility [1]: about 2.5 mg/ml

Compound: 5-methyl-(6S)-tetrahydrofolic acid calcium salt
- kinetic solubility [2]: 9.0 mg of 5-methyl-(6S)-tetrahydrofolic acid per mL
- water content (Water content (TG-FTIR); method not stated): 12.4%
- change of water content within tested relative humidity range [3]: about 7.4%
